The values below come from ChEMBL document CHEMBL1138974 (Bioorg Med Chem Lett, 2006).

The source made the active and inactive calls. The calls are words filed in the database; no cut-off is given here.

Data set [1] in a line: Intrinsic clearance in rat microsome. The conditions noted are these: microsomes. Format: ADME.
A short description of data set [2]: Intrinsic clearance in human microsome. It counts as ADME. The conditions noted are these: microsomes.
Data set [3] can be described thus: Ratio of drug level in brain against plasma in rat. It counts as ADME, organism-based. The settings on record: read-out: BPR.
A short description of data set [4]: Oral bioavailability in rat. Format: ADME, organism-based. The conditions noted are these: in vivo.
Data set [5] is described as follows: Clearance in rat. It counts as ADME, organism-based. The conditions noted are these: in vivo.
Data set [6] is described as follows: Volume of distribution in rat. Format: ADME, organism-based. The conditions noted are these: in vivo, read-out: Vss.
Data set [7] in a line: Dissociation constant, pKa of the compound. Format: physicochemical.
The target of data set [8] is T1, Sodium- and chloride-dependent glycine transporter 1 (Homo sapiens) (UniProt P48067).
T1 sequence (whole entry): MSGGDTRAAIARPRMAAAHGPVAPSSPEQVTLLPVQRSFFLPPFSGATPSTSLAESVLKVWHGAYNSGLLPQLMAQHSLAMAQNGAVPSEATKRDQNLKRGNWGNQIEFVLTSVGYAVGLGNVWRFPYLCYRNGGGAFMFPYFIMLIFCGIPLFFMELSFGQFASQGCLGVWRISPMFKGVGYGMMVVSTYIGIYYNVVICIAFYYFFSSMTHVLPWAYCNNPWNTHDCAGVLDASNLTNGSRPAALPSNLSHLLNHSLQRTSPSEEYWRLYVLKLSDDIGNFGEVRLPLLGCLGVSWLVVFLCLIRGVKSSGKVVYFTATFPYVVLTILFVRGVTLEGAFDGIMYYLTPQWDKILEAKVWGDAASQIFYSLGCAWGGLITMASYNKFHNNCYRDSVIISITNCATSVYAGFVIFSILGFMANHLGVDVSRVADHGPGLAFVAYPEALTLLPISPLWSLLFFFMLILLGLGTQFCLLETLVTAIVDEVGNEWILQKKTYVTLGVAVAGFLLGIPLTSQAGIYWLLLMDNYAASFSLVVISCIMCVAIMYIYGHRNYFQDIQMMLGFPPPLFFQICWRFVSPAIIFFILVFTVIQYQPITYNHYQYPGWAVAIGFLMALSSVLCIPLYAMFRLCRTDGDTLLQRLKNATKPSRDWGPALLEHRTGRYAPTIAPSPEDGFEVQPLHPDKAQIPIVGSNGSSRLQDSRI
Description: (§1) Inhibition of [3H]glycine uptake at human GlyT1 by radiometric assay.

Data set [9] has as its target T2, Sodium- and chloride-dependent glycine transporter 2 (Homo sapiens) (UniProt Q9Y345).
T2 sequence (whole entry): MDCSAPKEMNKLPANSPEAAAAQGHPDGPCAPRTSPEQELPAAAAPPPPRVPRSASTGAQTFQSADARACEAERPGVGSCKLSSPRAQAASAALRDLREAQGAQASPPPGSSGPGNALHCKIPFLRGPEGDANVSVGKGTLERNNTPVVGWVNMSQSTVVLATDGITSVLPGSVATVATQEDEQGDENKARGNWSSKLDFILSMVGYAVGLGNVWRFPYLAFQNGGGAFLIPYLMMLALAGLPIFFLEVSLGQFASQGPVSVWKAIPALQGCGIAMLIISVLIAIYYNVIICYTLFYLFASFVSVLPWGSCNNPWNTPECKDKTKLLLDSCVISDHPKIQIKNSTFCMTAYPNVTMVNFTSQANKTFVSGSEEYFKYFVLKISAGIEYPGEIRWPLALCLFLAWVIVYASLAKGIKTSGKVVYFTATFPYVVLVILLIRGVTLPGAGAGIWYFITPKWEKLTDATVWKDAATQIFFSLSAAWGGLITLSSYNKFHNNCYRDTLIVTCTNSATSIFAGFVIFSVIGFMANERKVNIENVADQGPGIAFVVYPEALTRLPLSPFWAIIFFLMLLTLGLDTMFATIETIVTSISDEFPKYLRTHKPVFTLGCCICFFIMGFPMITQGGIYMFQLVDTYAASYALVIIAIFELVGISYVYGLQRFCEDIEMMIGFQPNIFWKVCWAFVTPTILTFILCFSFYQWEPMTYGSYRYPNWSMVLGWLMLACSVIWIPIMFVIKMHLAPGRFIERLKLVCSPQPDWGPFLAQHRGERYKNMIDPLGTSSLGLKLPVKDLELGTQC
Description: (§2) Inhibition of [3H]glycine uptake at human GlyT2 by radiometric assay.

In data set [10] the target is T3, Sodium- and chloride-dependent glycine transporter 1 (Homo sapiens, UniProt P48067).
T3 sequence (P48067 whole entry): T1 sequence (whole entry)
The data set is described as §1.

Data set [11] in a line: Intrinsic clearance in mouse microsome. Format: ADME. The conditions noted are these: microsomes.
In data set [12] the target is Voltage-gated inwardly rectifying potassium channel KCNH2 (Homo sapiens, UniProt Q12809). Description: Inhibition of hERG potassium channel expressed in CHO cells by whole cell patch clamp method. It counts as toxicity, cell-based.
Chain of Voltage-gated inwardly rectifying potassium channel KCNH2 (Q12809 whole entry): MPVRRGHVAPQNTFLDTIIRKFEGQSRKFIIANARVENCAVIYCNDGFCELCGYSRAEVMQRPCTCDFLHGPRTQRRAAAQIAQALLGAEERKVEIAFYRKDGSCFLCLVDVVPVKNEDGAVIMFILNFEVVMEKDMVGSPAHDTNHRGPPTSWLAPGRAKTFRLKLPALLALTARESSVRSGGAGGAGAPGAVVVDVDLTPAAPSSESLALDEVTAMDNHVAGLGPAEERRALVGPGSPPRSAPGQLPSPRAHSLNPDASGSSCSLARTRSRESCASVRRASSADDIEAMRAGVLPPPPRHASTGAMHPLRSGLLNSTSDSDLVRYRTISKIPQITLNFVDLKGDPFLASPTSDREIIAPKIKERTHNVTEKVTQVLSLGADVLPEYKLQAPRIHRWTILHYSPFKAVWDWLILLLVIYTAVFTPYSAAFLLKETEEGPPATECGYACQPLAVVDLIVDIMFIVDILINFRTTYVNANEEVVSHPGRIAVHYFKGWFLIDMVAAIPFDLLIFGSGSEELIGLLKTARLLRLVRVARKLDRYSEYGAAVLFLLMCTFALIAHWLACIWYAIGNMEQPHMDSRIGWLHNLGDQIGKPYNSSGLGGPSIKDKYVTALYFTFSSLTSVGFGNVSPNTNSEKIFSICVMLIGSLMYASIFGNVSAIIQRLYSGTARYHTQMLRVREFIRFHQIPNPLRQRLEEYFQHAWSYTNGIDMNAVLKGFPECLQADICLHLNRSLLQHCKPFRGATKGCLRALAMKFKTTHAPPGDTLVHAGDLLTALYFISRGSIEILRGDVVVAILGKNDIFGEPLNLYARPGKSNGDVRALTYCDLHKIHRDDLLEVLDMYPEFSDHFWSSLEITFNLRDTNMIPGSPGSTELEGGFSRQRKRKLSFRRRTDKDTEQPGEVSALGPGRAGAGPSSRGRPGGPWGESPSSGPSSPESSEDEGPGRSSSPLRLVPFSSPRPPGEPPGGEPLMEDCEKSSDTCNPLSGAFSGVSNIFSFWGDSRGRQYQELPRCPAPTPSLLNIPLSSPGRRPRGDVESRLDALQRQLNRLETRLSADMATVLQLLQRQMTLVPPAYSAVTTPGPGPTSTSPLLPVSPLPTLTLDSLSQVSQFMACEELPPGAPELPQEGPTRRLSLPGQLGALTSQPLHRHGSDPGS
Data set [13] deals with T4, Sodium- and chloride-dependent glycine transporter 2 (Homo sapiens, UniProt Q9Y345).
T4 sequence (Q9Y345 whole entry): T2 sequence (whole entry)
The description is as §2.

In data set [14] the target is Nociceptin receptor (Homo sapiens, UniProt P41146). Description: Displacement of [3H]NOP from human NOP receptors expressed in HEK293 cells. Format: cell-based.
Chain of Nociceptin receptor (P41146 whole entry): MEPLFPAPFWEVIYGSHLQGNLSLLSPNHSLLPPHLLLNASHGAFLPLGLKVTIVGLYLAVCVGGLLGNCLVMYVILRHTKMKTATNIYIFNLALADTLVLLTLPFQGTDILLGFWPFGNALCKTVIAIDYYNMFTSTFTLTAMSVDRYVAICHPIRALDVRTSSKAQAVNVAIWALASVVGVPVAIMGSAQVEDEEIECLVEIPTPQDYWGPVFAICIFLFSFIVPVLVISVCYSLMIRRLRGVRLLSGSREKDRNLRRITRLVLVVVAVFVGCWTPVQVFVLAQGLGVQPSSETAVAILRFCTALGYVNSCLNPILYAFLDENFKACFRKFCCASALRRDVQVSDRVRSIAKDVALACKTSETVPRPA
A short description of data set [15]: Oral bioavailability in mouse. Format: ADME, organism-based. The settings on record: in vivo.
Data set [16] in a line: Clearance in mouse. The settings on record: in vivo. Format: ADME, organism-based.
A short description of data set [17]: Volume of distribution in mouse. Format: ADME, organism-based. The settings on record: in vivo, read-out: Vss.

Take `O=C1NCN(c2ccccc2)C12CCN(C1CCCCC1c1ccccc1)CC2` (stereo not given): the microsomal CLint in data set [1] worked out at 240 µL/min/mg; in data set [2], 68 µL/min/mg. For the same compound, in [3], the Kp was 1.6. Moreover, the bioavailability in [4] worked out at 8%. In data set [5], this compound had a clearance of 120 mL/min/kg. In data set [6], the Vd stood at 7.3 L/kg.
In the case of `O=C1NCC(c2ccc(F)cc2)C12CCN(C1CCCCC1(O)c1ccccc1)CC2` (stereo not given), the pKa in data set [7] was 6.89. Further, in [8], the Activity is 91 nM. Also, in data set [9], the outcome was inactive.
Regarding `O=C1NCN(c2ccccc2)C12CCN(C1CCCCC1(O)c1ccc(F)cc1)CC2` (stereo not given), the results for the microsomal CLint in data set [1] and in [2] were 499 µL/min/mg and 78 µL/min/mg, respectively. This compound came in with an EC50 in [10] of 24 nM.
Turning to `O=C1NCC(c2ccccc2)C12CCN(C1CCCCC1(O)c1ccc(F)cc1)CC2` (single isomer, unassigned; diastereomer 1), the microsomal CLint in data set [11] was determined as 13 µL/min/mg; in data set [2] it was 44 µL/min/mg. Moreover, the IC50 in data set [12] is 1800 nM; in data set [14] (hek293), greater than 10000 nM. In addition, the pKa in data set [7] came out at 8.54. In addition, the EC50 is 70 nM in [10] and greater than 30000 nM in data set [13].
In turn, `O=C1NCC(c2ccccc2)C12CCN(C1CCCCC1(O)c1ccc(F)cc1)CC2` (single isomer, unassigned; diastereomer 3) registered an EC50 in data set [13] greater than 30000 nM. Further, in data set [14], the IC50 is greater than 10000 nM.
Regarding `O=C1NC[C@@H](c2ccccc2)C12CCN(C1CCCCC1c1ccccc1)CC2` (stereo in doubt; 3), the EC50 in data set [10] was 232 nM; in data set [13], 25000 nM. The compound also yielded an IC50 in data set [14] greater than 10000 nM.
As for `O=C1NC[C@@H](c2ccccc2)C12CCN(C1CCCCC1c1ccccc1)CC2` (stereo in doubt; 27), the figures for the microsomal CLint in data set [11] and in data set [2] were 36 µL/min/mg and 23 µL/min/mg, respectively. Besides, the Kp in data set [3] was determined as 5.2. Further, the clearance in data set [5] is 63 mL/min/kg; in data set [16], 99 mL/min/kg. The Vd in data set [6] came to 4.3 L/kg; in [17], 8.9 L/kg. In addition, the bioavailability in [15] is 27%. In data set [12], this compound returned an IC50 of 1400 nM. The same compound gave a pKa in [7] of 8.85. Further, a half-maximal response in [10] (EC50) required 61 nM.
